In patent US10722501B2 (BAYER AKTIENGESELLSCHAFT, priority 2016, dated 2020):

Target: T1, recombinant full-length human prolyl endopeptidase (PREP) (Homo sapiens, UniProt P48147)
T1 construct: To recombinant full-length human prolyl endopeptidase (PREP, R&D-Systems, 4308-SE); purchased R&D-Systems 4308-SE
T1 sequence (P48147 1-710): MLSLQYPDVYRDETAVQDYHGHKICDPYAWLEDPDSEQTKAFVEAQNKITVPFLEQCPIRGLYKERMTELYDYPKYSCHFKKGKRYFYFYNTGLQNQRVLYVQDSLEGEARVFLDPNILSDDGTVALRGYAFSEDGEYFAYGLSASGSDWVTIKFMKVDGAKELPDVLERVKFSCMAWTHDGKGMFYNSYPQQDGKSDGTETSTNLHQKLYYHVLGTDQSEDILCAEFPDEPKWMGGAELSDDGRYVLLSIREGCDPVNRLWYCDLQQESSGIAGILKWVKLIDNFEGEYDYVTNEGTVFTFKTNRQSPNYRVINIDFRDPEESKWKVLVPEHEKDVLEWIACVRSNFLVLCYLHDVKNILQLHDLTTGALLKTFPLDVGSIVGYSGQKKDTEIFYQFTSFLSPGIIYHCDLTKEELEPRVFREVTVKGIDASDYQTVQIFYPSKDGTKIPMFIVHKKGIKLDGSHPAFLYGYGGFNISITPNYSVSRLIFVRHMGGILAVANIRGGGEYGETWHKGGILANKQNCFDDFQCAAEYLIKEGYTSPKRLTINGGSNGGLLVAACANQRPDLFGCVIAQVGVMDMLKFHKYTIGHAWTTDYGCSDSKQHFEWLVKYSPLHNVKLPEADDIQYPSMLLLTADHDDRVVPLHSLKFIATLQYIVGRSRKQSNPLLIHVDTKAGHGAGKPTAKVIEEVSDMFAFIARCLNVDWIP
Assay: Biochemical human prolyl endopeptidase (PREP) assay with fluorescently labelled substrate
Conditions: substrate Z-Gly-Pro-AMC 50 μM, 32° C., 60 min; some as mean values from multiple independent determinations
Procedure, shortened: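 Initial rates of fluorescence increase from 50 μM Z-Gly-Pro-AMC cleavage (ex 360/em 465 nm, 60 min, 32° C) give percent PREP activity versus no-compound control, and IC50 is interpolated. Enzyme used at 0.4 nM (final, example) in Tris pH 7.5 with EDTA, GSH, BSA and Brij-35; compounds span 1 nM to 30 μM.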

| IC50 [nM] | Compound |
| --- | --- |
| 4.3 | O=C([C@@H]1CCCc2nn(Cc3ccnc(C(F)(F)F)c3F)c(=O)n21)N1CCSC1 [Example 485, (5S)-2-{[3-Fluoro-2-(trifluoromethyl)pyridin-4-yl]methyl}-5-(1,3-thiazolidin-3-ylcarbonyl)-5,6,7,8-tetrahydro[1,2,4]triazolo[4,3-a]pyridin-3(2H)-one] |
| 0.465 | O=C([C@@H]1CCCc2nn(Cc3ccc(F)cc3F)c(=O)n21)N1CC(F)C1 [Example 486, (5S)-2-(2,4-Difluorobenzyl)-5-[(3-fluoroazetidin-1-yl)carbonyl]-5,6,7,8-tetrahydro[1,2,4]triazolo[4,3-a]pyridin-3(2H)-one] |
| 0.15 | O=C([C@@H]1CCCc2nn(Cc3ccc(F)cc3F)c(=O)n21)N1CC[C@H](F)C1 [Example 488, (5S)-2-(2,4-Difluorobenzyl)-5-{[(3S)-3-fluoropyrrolidin-1-yl]carbonyl}-5,6,7,8-tetrahydro[1,2,4]triazolo[4,3-a]pyridin-3(2H)-one] |
| 0.11 | O=C([C@@H]1CCCc2nn(Cc3ccc(F)cc3F)c(=O)n21)N1C[C@@H](F)[C@@H](F)C1 [Example 489, (5S)-2-(2,4-Difluorobenzyl)-5-{[(3R,4S)-3,4-difluoropyrrolidin-1-yl]carbonyl}-5,6,7,8-tetrahydro[1,2,4]triazolo[4,3-a]pyridin-3(2H)-one] |
| 0.38 | O=C([C@@H]1CCCc2nn(Cc3cc(F)c(F)cc3F)c(=O)n21)N1CCC(F)(F)C1 [Example 490, (5S)-5-[(3,3-Difluoropyrrolidin-1-yl)carbonyl]-2-(2,4,5-trifluorobenzyl)-5,6,7,8-tetrahydro[1,2,4]triazolo[4,3-a]pyridin-3(2H)-one] |
| 0.32 | O=C([C@@H]1CCCc2nn(Cc3cc(F)c(F)cc3F)c(=O)n21)N1CC[C@H](F)C1 [Example 493, (5S)-5-{[(3S)-3-Fluoropyrrolidin-1-yl]carbonyl}-2-(2,4,5-trifluorobenzyl)-5,6,7,8-tetrahydro[1,2,4]triazolo[4,3-a]pyridin-3(2H)-one] |
| 5.15 | O=C([C@@H]1CCCc2nn(Cc3nc(C(F)(F)F)no3)c(=O)n21)N1C[C@@H](F)[C@@H](F)C1 [Example 500, (5S)-5-{[(3R,4S)-3,4-Difluoropyrrolidin-1-yl]carbonyl}-2-{[3-(trifluoromethyl)-1,2,4-oxadiazol-5-yl]methyl}-5,6,7,8-tetrahydro[1,2,4]triazolo[4,3-a]pyridin-3(2H)-one] |
| 2 | O=C([C@@H]1CCCc2nn(Cc3ccc(C(F)(F)F)nc3)c(=O)n21)N1CCSC1 [Example 503, (5S)-5-(1,3-Thiazolidin-3-ylcarbonyl)-2-{[6-(trifluoromethyl)pyridin-3-yl]methyl}-5,6,7,8-tetrahydro[1,2,4]triazolo[4,3-a]pyridin-3(2H)-one] |

Continued, compound first:

| Compound | IC50 [nM] |
| --- | --- |
| O=C([C@@H]1CCCc2nn(Cc3ccc(F)cc3F)c(=O)n21)N1CCC(F)(F)C1 [Example 487, (5S)-2-(2,4-Difluorobenzyl)-5-[(3,3-difluoropyrrolidin-1-yl)carbonyl]-5,6,7,8-tetrahydro[1,2,4]triazolo[4,3-a]pyridin-3(2H)-one] | 0.725 |
| O=C([C@@H]1CCCc2nn(Cc3cc(F)c(F)cc3F)c(=O)n21)N1CC(F)C1 [Example 491, (5S)-5-[(3-Fluoroazetidin-1-yl)carbonyl]-2-(2,4,5-trifluorobenzyl)-5,6,7,8-tetrahydro[1,2,4]triazolo[4,3-a]pyridin-3(2H)-one] | 0.44 |
| O=C([C@@H]1CCCc2nn(Cc3cc(F)c(F)cc3F)c(=O)n21)N1C[C@@H](F)[C@@H](F)C1 [Example 492, (5S)-5-{[(3R,4S)-3,4-Difluoropyrrolidin-1-yl]carbonyl}-2-(2,4,5-trifluorobenzyl)-5,6,7,8-tetrahydro[1,2,4]triazolo[4,3-a]pyridin-3(2H)-one] | 0.52 |
| O=C([C@@H]1CCCc2nn(Cc3cc(C(F)(F)F)nc4ccccc34)c(=O)n21)N1CC(F)C1 [Example 494, (5S)-5-[(3-Fluoroazetidin-1-yl)carbonyl]-2-{[2-(trifluoromethyl)quinolin-4-yl]methyl}-5,6,7,8-tetrahydro[1,2,4]triazolo[4,3-a]pyridin-3(2H)-one] | 0.91 |
| O=C([C@@H]1CCCc2nn(Cc3cc(C(F)(F)F)nc4ccccc34)c(=O)n21)N1CC(O)C1 [Example 495, (5S)-5-[(3-Hydroxyazetidin-1-yl)carbonyl]-2-{[2-(trifluoromethyl)quinolin-4-yl]methyl}-5,6,7,8-tetrahydro[1,2,4]triazolo[4,3-a]pyridin-3(2H)-one] | 16.5 |
| O=C([C@@H]1CCCc2nn(Cc3cc(C(F)(F)F)nc4ccccc34)c(=O)n21)N1CC[C@H](O)C1 [Example 496, (5S)-5-{[(3S)-3-Hydroxypyrrolidin-1-yl]carbonyl}-2-{[2-(trifluoromethyl)quinolin-4-yl]methyl}-5,6,7,8-tetrahydro[1,2,4]triazolo[4,3-a]pyridin-3(2H)-one] | 18 |
| O=C([C@@H]1CCCc2nn(Cc3cc(C(F)(F)F)nc4ccccc34)c(=O)n21)N1C[C@@H](F)[C@@H](F)C1 [Example 497, (5S)-5-{[(3R,4S)-3,4-Difluoropyrrolidin-1-yl]carbonyl}-2-{[2-(trifluoromethyl)quinolin-4-yl]methyl}-5,6,7,8-tetrahydro[1,2,4]triazolo[4,3-a]pyridin-3(2H)-one] | 0.18 |
| O=C([C@@H]1CCCc2nn(Cc3cc(C(F)(F)F)nc4ccc(F)cc34)c(=O)n21)N1CCCC1 [Example 498, (5S)-2-{[6-Fluoro-2-(trifluoromethyl)quinolin-4-yl]methyl}-5-(pyrrolidin-1-ylcarbonyl)-5,6,7,8-tetrahydro[1,2,4]triazolo[4,3-a]pyridin-3(2H)-one] | 0.44 |
| O=C([C@@H]1CCCc2nn(Cc3nc(C(F)(F)F)no3)c(=O)n21)N1CC(F)(F)C1 [Example 499, (5S)-5-[(3,3-Difluoroazetidin-1-yl)carbonyl]-2-{[3-(trifluoromethyl)-1,2,4-oxadiazol-5-yl]methyl}-5,6,7,8-tetrahydro[1,2,4]triazolo[4,3-a]pyridin-3(2H)-one] | 110 |
| O=C([C@@H]1CCCc2nn(Cc3nc(C(F)(F)F)no3)c(=O)n21)N1CCC(F)(F)C1 [Example 501, (5S)-5-[(3,3-Difluoropyrrolidin-1-yl)carbonyl]-2-{[3-(trifluoromethyl)-1,2,4-oxadiazol-5-yl]methyl}-5,6,7,8-tetrahydro[1,2,4]triazolo[4,3-a]pyridin-3(2H)-one] | 25.5 |
| O=C([C@@H]1CCCc2nn(Cc3ccc(Br)cn3)c(=O)n21)N1C[C@@H](F)[C@@H](F)C1 [Example 504, (5S)-2-[(5-Bromopyridin-2-yl)methyl]-5-{[(3R,4S)-3,4-difluoropyrrolidin-1-yl]carbonyl}-5,6,7,8-tetrahydro[1,2,4]triazolo[4,3-a]pyridin-3(2H)-one] | 1.8 |
| O=C([C@@H]1CCCc2nn(Cc3ccc(Cl)cn3)c(=O)n21)N1CCSC1 [Example 505, (5S)-2-[(5-Chloropyridin-2-yl)methyl]-5-(1,3-thiazolidin-3-ylcarbonyl)-5,6,7,8-tetrahydro[1,2,4]triazolo[4,3-a]pyridin-3(2H)-one] | 1.4 |
| O=C([C@@H]1CCCc2nn(Cc3cncc(Br)c3)c(=O)n21)N1C[C@@H](F)[C@@H](F)C1 [Example 506, (5S)-2-[(5-Bromopyridin-3-yl)methyl]-5-{[(3R,4S)-3,4-difluoropyrrolidin-1-yl]carbonyl}-5,6,7,8-tetrahydro[1,2,4]triazolo[4,3-a]pyridin-3(2H)-one] | 1.2 |
| O=C([C@@H]1CCCc2nn(Cc3ncc(Cl)cc3F)c(=O)n21)N1CCSC1 [Example 507, (5S)-2-[(5-Chloro-3-fluoropyridin-2-yl)methyl]-5-(1,3-thiazolidin-3-ylcarbonyl)-5,6,7,8-tetrahydro[1,2,4]triazolo[4,3-a]pyridin-3(2H)-one] | 0.94 |
| O=C([C@@H]1CCCc2nn(Cc3ccc(Cl)cn3)c(=O)n21)N1CC[C@H](F)C1 [Example 508, (5S)-2-[(5-Chloropyridin-2-yl)methyl]-5-{[(3S)-3-fluoropyrrolidin-1-yl]carbonyl}-5,6,7,8-tetrahydro[1,2,4]triazolo[4,3-a]pyridin-3(2H)-one] | 0.91 |
| O=C([C@@H]1CCCc2nn(Cc3cncc(Br)c3)c(=O)n21)N1CC[C@H](F)C1 [Example 509, (5S)-2-[(5-Bromopyridin-3-yl)methyl]-5-{[(3S)-3-fluoropyrrolidin-1-yl]carbonyl}-5,6,7,8-tetrahydro[1,2,4]triazolo[4,3-a]pyridin-3(2H)-one] | 0.7 |
| O=C([C@@H]1CCCc2nn(Cc3ccc(Br)cn3)c(=O)n21)N1CC[C@H](F)C1 [Example 510, (5S)-2-[(5-Bromopyridin-2-yl)methyl]-5-{[(3S)-3-fluoropyrrolidin-1-yl]carbonyl}-5,6,7,8-tetrahydro[1,2,4]triazolo[4,3-a]pyridin-3(2H)-one] | 0.535 |
